We go through three molecules from US20120121591A1 (priority 2009, published 2012).

Common to all, as to assay type: cell-based
The subject of assay [1] is IL-2 secretion from T cells in human whole blood. Conditions: read-out: WB (IL-2) IC50 (nM, Avg).
Assay [2] has as its system IFN-g secretion from T cells in human whole blood. Conditions: read-out: WB (IFNg) IC50 (nM, Avg).
The target of assay [3] is hKv1.3 (Homo sapiens, UniProt P22001). The assay is described as follows: cell-based. To be noted: Kv1.3 (IWQ) IC50 (nM, Avg).
hKv1.3, sequence (P22001 whole entry): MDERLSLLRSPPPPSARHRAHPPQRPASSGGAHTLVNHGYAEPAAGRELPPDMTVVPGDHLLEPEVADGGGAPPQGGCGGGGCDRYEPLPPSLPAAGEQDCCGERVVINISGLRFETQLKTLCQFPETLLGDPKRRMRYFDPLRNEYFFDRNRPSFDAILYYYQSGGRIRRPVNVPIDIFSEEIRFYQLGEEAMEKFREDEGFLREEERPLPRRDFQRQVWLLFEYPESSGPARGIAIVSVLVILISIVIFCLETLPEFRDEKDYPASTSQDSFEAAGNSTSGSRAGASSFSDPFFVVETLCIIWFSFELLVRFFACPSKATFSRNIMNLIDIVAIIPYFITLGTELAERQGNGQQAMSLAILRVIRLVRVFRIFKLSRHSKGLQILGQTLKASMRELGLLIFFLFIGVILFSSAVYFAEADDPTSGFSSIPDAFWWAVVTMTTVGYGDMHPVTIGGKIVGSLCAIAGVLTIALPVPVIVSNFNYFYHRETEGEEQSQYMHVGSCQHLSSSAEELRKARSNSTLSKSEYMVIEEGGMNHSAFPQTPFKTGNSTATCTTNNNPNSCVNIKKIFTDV

Consider `CC[C@H](C)[C@@H]1NC(=O)[C@@H](NC(=O)[C@H](CO)NC(=O)[C@@H](N)CCCCN)CSSC[C@@H](C(=O)O)NC(=O)[C@H]([C@@H](C)O)NC(=O)CNC(=O)[C@@H]2CSSC[C@@H]3NC(=O)[C@H](CCC(N)=O)NC(=O)[C@H](Cc4ccccc4)NC(=O)[C@H](C)NC(=O)[C@H]([C@@H](C)O)NC(=O)[C@H](CSSC[C@H](NC(=O)[C@H](Cc4ccccc4)NC(=O)[C@H](CO)NC(=O)[C@H](CC(C)C)NC(=O)[C@H](CCCNC(=N)N)NC(=O)[C@H](Cc4ccc(O)cc4)NC(=O)[C@H](CCCCN)NC(=O)[C@H](CCSC)NC(=O)[C@H](CO)NC(=O)[C@H](Cc4c[nH]cn4)NC(=O)[C@H](CCCCN)NC3=O)C(=O)N[C@@H](CCCNC(=N)N)C(=O)N[C@@H](CCCCN)C(=O)N[C@@H]([C@@H](C)O)C(=O)N2)NC(=O)[C@H](CCCNC(=N)N)NC(=O)[C@H](CO)NC(=O)[C@H](CCCCN)NC(=O)[C@@H]2CCCN2C(=O)[C@H]([C@@H](C)CC)NC(=O)[C@H]([C@@H](C)O)NC(=O)[C@H](CC(=O)O)NC1=O` [[Lys1]ShK], for which the IC50 in assay [1] was 0.035 nM; in assay [2] it was 0.073 nM; in assay [3] it was 0.158 nM.

As to `CC[C@H](C)[C@@H]1NC(=O)[C@@H](NC(=O)[C@H](CCCCN)NC(=O)[C@@H](N)CCCNC(=N)N)CSSC[C@@H](C(=O)O)NC(=O)[C@H]([C@@H](C)O)NC(=O)CNC(=O)[C@@H]2CSSC[C@@H]3NC(=O)[C@H](CCC(N)=O)NC(=O)[C@H](Cc4ccccc4)NC(=O)[C@H](C)NC(=O)[C@H]([C@@H](C)O)NC(=O)[C@H](CSSC[C@H](NC(=O)[C@H](Cc4ccccc4)NC(=O)[C@H](CO)NC(=O)[C@H](CC(C)C)NC(=O)[C@H](CCCNC(=N)N)NC(=O)[C@H](Cc4ccc(O)cc4)NC(=O)[C@H](CCCCN)NC(=O)[C@H](CCSC)NC(=O)[C@H](CO)NC(=O)[C@H](Cc4c[nH]cn4)NC(=O)[C@H](CCCCN)NC3=O)C(=O)N[C@@H](CCCNC(=N)N)C(=O)N[C@@H](CCCCN)C(=O)N[C@@H]([C@@H](C)O)C(=O)N2)NC(=O)[C@H](CCCNC(=N)N)NC(=O)[C@H](CO)NC(=O)[C@H](CCCCN)NC(=O)[C@@H]2CCCN2C(=O)[C@H]([C@@H](C)CC)NC(=O)[C@H]([C@@H](C)O)NC(=O)[C@H](CC(=O)O)NC1=O` [[Lys2]ShK], the IC50 stood at 0.099 nM in assay [1], 0.093 nM in assay [2] and 0.149 nM in assay [3].

Turning to `CC[C@H](C)[C@@H]1NC(=O)[C@@H](NC(=O)[C@H](CO)NC(=O)[C@@H](N)CCCNC(=N)N)CSSC[C@@H](C(=O)O)NC(=O)[C@H]([C@@H](C)O)NC(=O)CNC(=O)[C@@H]2CSSC[C@@H]3NC(=O)[C@H](CCC(N)=O)NC(=O)[C@H](Cc4ccccc4)NC(=O)[C@H](C)NC(=O)[C@H]([C@@H](C)O)NC(=O)[C@H](CSSC[C@H](NC(=O)[C@H](Cc4ccccc4)NC(=O)[C@H](CO)NC(=O)[C@H](CC(C)C)NC(=O)[C@H](CCCNC(=N)N)NC(=O)[C@H](Cc4ccc(O)cc4)NC(=O)[C@H](CCCCN)NC(=O)[C@H](CCSC)NC(=O)[C@H](CO)NC(=O)[C@H](Cc4c[nH]cn4)NC(=O)[C@H](CCCCN)NC3=O)C(=O)N[C@@H](CCCNC(=N)N)C(=O)N[C@@H](CCCCN)C(=O)N[C@@H]([C@@H](C)O)C(=O)N2)NC(=O)[C@H](CCCNC(=N)N)NC(=O)[C@H](CO)NC(=O)[C@H](CCCCN)NC(=O)[C@@H]2CCCN2C(=O)[C@H](CCCCN)NC(=O)[C@H]([C@@H](C)O)NC(=O)[C@H](CC(=O)O)NC1=O` [[Lys7]ShK], the results for the IC50 in assay [1], in assay [2] and in assay [3] were 4.67 nM, 13.5 nM and 0.792 nM, respectively.
